The text below walks through data of PMC5805629 (Journal of medicinal chemistry, 2018).

Molecules are shown by their SMILES.

In series [1] the test system is SW620/Ad300 drug-resistant cell lines. The following applies: 10 μM in vitro; cited from earlier work.
The subject of series [2] is tumor. As to conditions: mice; no apparent side-effects; cited from earlier work.
In series [3] the test system is SW620/Ad300 drug-resistant cell lines. The following applies: cited from earlier work.
In series [4] the target is T1, human P-gp (Homo sapiens, UniProt P08183). As to conditions: read-out: [125I]-IAAP labeling IC50; inhibition of photolabeling of P-gp; cited from earlier work.
Series [5] deals with T1, human P-gp. The following applies: 20 min, 2.5 µM, pH 6.8.
Series [6] deals with CYP3A4 (Homo sapiens, UniProt P08684). Kind of series: In vitro CYP3A4 enzyme inhibition assay. It is filed as in vitro ADME. The following applies: 25 μM.
Series [7] is described as follows: MDR reversal. It is filed as cell-based. As to conditions: human.
For series [8], the system named is HEK 293-pcDNA 3.1 cells. Kind of series: MDR reversal. It is filed as cell-based. As to conditions: 72 h, read-out: IC50 ± SD of paclitaxel.
Series [9] concerns parental and resistant cell lines. As to the kind of experiment: Preliminary cytotoxicity of reversal compounds treated alone. It is filed as cell-based. As to conditions: 5 μM concentration.

T1 sequence (P08183 whole entry): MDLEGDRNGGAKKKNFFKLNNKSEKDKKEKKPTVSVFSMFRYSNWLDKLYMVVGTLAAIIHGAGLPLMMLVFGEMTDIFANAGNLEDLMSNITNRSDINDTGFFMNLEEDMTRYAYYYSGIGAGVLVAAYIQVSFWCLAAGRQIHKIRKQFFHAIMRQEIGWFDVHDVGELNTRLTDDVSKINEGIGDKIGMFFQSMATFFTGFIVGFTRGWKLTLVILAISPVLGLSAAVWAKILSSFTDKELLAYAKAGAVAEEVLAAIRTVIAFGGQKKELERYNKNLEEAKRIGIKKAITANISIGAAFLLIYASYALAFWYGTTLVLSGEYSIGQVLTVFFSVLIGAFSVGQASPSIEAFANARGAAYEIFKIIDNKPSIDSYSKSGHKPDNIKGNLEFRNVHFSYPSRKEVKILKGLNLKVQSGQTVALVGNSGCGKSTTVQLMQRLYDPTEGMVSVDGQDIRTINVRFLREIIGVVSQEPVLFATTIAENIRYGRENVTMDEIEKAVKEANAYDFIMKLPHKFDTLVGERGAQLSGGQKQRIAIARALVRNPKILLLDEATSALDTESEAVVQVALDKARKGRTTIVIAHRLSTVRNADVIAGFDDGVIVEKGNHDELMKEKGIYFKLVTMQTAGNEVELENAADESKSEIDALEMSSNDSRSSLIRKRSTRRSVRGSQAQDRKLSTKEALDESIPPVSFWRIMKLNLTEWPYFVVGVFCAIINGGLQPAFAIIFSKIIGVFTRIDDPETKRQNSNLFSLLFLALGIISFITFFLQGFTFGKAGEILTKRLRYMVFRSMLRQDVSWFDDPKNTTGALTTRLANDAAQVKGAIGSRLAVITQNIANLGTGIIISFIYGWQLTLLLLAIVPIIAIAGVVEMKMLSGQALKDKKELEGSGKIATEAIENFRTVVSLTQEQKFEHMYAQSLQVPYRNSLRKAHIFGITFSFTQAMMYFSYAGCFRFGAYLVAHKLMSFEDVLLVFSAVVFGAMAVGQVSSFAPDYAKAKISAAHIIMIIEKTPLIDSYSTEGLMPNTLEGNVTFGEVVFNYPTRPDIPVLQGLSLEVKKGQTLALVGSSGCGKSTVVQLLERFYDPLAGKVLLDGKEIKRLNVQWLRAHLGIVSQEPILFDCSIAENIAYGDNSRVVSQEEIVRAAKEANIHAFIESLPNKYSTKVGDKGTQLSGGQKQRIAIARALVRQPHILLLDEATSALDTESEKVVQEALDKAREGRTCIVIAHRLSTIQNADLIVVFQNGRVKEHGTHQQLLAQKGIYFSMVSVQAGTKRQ
Sequence of CYP3A4 (P08684 whole entry): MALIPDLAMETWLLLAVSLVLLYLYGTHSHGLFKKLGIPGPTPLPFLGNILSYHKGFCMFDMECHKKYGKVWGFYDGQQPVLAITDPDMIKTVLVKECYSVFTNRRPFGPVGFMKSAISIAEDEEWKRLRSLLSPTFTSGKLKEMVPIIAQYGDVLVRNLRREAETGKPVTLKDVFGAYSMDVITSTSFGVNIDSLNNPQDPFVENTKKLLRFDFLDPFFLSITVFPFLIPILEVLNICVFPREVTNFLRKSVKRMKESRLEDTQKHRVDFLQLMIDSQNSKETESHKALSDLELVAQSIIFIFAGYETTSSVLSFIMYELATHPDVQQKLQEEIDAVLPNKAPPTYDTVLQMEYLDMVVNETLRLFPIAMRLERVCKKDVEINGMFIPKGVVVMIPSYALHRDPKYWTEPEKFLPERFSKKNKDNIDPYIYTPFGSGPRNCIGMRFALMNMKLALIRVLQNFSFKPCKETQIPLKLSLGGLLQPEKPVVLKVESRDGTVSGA

Broadly, the IC50 is the concentration that inhibits the measured activity by half. `COc1cc(C(=O)N[C@H](c2nc(C(=O)Nc3ccccc3C(=O)c3ccccc3)cs2)C(C)C)cc(OC)c1OC` [Compound 1, (S)-N-(2-benzoylphenyl)-2-(2-methyl-1-(3,4,5-trimethoxybenzamido)propyl)thiazole-4-carboxamide]: the “reversal of resistance to paclitaxel, doxorubicin and vincristine” value in series [1] is listed as “significant reversal of resistance”. Also, the “tumor volume and tumor weight” value in series [2] is “reduced tumor volume and tumor weight”. In addition, the intracellular paclitaxel concentration entry in [3] was “increased intracellular paclitaxel concentration”. The IC50 in series [4] was 720 nM. As for `COc1cc(C(=O)N[C@H](c2nc(C(=O)NC3CCNCC3)cs2)C(C)C)cc(OC)c1OC` [Compound 42, (S)-2-(2-Methyl-1-(3,4,5-trimethoxybenzamido)propyl)-N-(piperidin-4-yl)thiazole-4-carboxamide], the “ATPase activity % Stimulation” value in series [5] was 15%. On to `COc1cc(C(=O)N[C@H](c2nc(C(=O)NCC3CCC(F)(F)CC3)cs2)C(C)C)cc(OC)c1OC` [Compound 63, (S)-N-((4,4-Difluorocyclohexyl)methyl)-2-(2-methyl-1-(3,4,5-trimethoxybenzamido)propyl)thiazole-4-carboxamide], for which the “ATPase activity % Stimulation” value in series [5] worked out at 21%. `COc1cc(C(=O)NC(Cc2ccccc2)c2nc(C(=O)NC3CCC(F)(F)CC3)cs2)cc(OC)c1OC` (stereo not shown) [Compound 109, N-(4,4-Difluorocyclohexyl)-2-(2-phenyl-1-(3,4,5-trimethoxybenzamido)ethyl)thiazole-4-carboxamide]: the “CYP3A4 Inhibition (%)” value in [6] is “did not inhibit”. On to `CC(=O)O[C@H]1C(=O)[C@@]2(C)[C@H]([C@H](OC(=O)c3ccccc3)[C@]3(O)C[C@H](OC(=O)[C@H](O)[C@@H](NC(=O)c4ccccc4)c4ccccc4)C(C)=C1C3(C)C)[C@]1(OC(C)=O)CO[C@@H]1C[C@@H]2O` [Paclitaxel, paclitaxel], for which the IC50 at 72 h in series [7] was 2050 ± 87 nM. Further, the IC50 in series [8] was determined as 71 ± 15 nM. With `O[C@@H](COc1cccc2ncccc12)CN1CCN([C@@H]2c3ccccc3[C@@H]3[C@H](c4ccccc42)C3(F)F)CC1` [Zosuquidar, zosuquidar], in [9], the cytotoxicity entry is “cytotoxic”.
